Laboratory results taken from the supplement of paper PMC10307832.

Key:
Assay in all cases: relative viability (nuclei count vs DMSO), 5 days (fraction); higher = more cells survive
NCI-H838 = tested on: NCI-H838
How it was run: (§1)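 Lung cancer cell lines in 1536-well plates were dosed by pin tool the day after seeding, either with one drug alone or with a fixed anchor-drug dose plus five library-drug doses (not always all listed) in √10 steps. After 5 days, cells were fixed and their nuclei stained in one step (final 0.05% Triton X-100, 1% formaldehyde, 1 ug/ml Hoechst), then counted on 4× images. Relative viability is the nuclei count in treated wells divided by that in vehicle wells. Values are medians of duplicate plates.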

NCI-H23 = tested on: NCI-H23
How it was run: as §1

NCI-H1993 = tested on: NCI-H1993
How it was run: as §1

SK-LU-1 = tested on: SK-LU-1
How it was run: as §1

NCI-H1793 = tested on: NCI-H1793
How it was run: as §1

NCI-H2126 = tested on: NCI-H2126
How it was run: as §1

NCI-H2405 = tested on: NCI-H2405
How it was run: as §1

NCI-H2023 = tested on: NCI-H2023
How it was run: as §1

NCI-H2228 = tested on: NCI-H2228
How it was run: as §1

ChaGo-K-1 = tested on: ChaGo-K-1
How it was run: as §1

A-427 = tested on: A-427
How it was run: as §1

ABC-1 = tested on: ABC-1
How it was run: as §1

## CC1(C)CCC(c2ccc(Cl)cc2)=C(CN2CCN(c3ccc(C(=O)NS(=O)(=O)c4ccc(N[C@H](CCN5CCOCC5)CSc5ccccc5)c(S(=O)(=O)C(F)(F)F)c4)cc3)CC2)C1 [Navitoclax] + COc1cc2c(Oc3ccc(NC(=O)C4(C(=O)Nc5ccc(F)cc5)CC4)cc3F)ccnc2cc1OCCCN1CCOCC1 [Foretinib] (partner 0.25 µM)
NCI-H838; first compound 0.005 µM
  relative viability: 0.976
NCI-H838; first compound 0.01581 µM
  relative viability: 1.09
NCI-H838; first compound 0.05 µM
  relative viability: 1.19
NCI-H838; first compound 0.1581 µM
  relative viability: 1.01
NCI-H838; first compound 0.5 µM
  relative viability: 1.03
NCI-H23; first compound 0.005 µM
  relative viability: 1.04
NCI-H23; first compound 0.01581 µM
  relative viability: 1.1
NCI-H23; first compound 0.05 µM
  relative viability: 1.08
NCI-H23; first compound 0.1581 µM
  relative viability: 0.768
NCI-H23; first compound 0.5 µM
  relative viability: 0.882
NCI-H1993; first compound 0.005 µM
  relative viability: 0.854
NCI-H1993; first compound 0.01581 µM
  relative viability: 0.938
NCI-H1993; first compound 0.05 µM
  relative viability: 0.687
NCI-H1993; first compound 0.1581 µM
  relative viability: 0.839
NCI-H1993; first compound 0.5 µM
  relative viability: 0.862
SK-LU-1; first compound 0.005 µM
  relative viability: 0.928
SK-LU-1; first compound 0.01581 µM
  relative viability: 0.954
SK-LU-1; first compound 0.05 µM
  relative viability: 0.953
SK-LU-1; first compound 0.1581 µM
  relative viability: 0.772
SK-LU-1; first compound 0.5 µM
  relative viability: 0.741
NCI-H1793; first compound 0.005 µM
  relative viability: 0.616
NCI-H1793; first compound 0.01581 µM
  relative viability: 0.711
NCI-H1793; first compound 0.1581 µM
  relative viability: 0.608
NCI-H1793; first compound 0.5 µM
  relative viability: 0.622
NCI-H2126; first compound 0.005 µM
  relative viability: 1.25
NCI-H2126; first compound 0.01581 µM
  relative viability: 1.17
NCI-H2126; first compound 0.1581 µM
  relative viability: 1.14
NCI-H2126; first compound 0.5 µM
  relative viability: 1.19
NCI-H2405; first compound 0.005 µM
  relative viability: 1.04
NCI-H2405; first compound 0.01581 µM
  relative viability: 1.09
NCI-H2405; first compound 0.05 µM
  relative viability: 0.998
NCI-H2405; first compound 0.1581 µM
  relative viability: 1.04
NCI-H2405; first compound 0.5 µM
  relative viability: 1.05
NCI-H2023; first compound 0.005 µM
  relative viability: 0.912
NCI-H2023; first compound 0.01581 µM
  relative viability: 1.12
NCI-H2023; first compound 0.05 µM
  relative viability: 0.819
NCI-H2023; first compound 0.1581 µM
  relative viability: 0.848
NCI-H2023; first compound 0.5 µM
  relative viability: 0.995
NCI-H2228; first compound 0.005 µM
  relative viability: 0.727
NCI-H2228; first compound 0.01581 µM
  relative viability: 1.04
NCI-H2228; first compound 0.1581 µM
  relative viability: 1.01
NCI-H2228; first compound 0.5 µM
  relative viability: 0.85
ChaGo-K-1; first compound 0.005 µM
  relative viability: 1.04
ChaGo-K-1; first compound 0.01581 µM
  relative viability: 0.94
ChaGo-K-1; first compound 0.05 µM
  relative viability: 0.537
ChaGo-K-1; first compound 0.1581 µM
  relative viability: 0.9
ChaGo-K-1; first compound 0.5 µM
  relative viability: 0.932
A-427; first compound 0.005 µM
  relative viability: 0.988
A-427; first compound 0.01581 µM
  relative viability: 1.07
A-427; first compound 0.05 µM
  relative viability: 0.821
A-427; first compound 0.1581 µM
  relative viability: 1.04
A-427; first compound 0.5 µM
  relative viability: 1.1
ABC-1; first compound 0.005 µM
  relative viability: 1.32
ABC-1; first compound 0.01581 µM
  relative viability: 1.17
